# Assay results reported in patent US8916498B2, “Safening 6-(trisubstituted phenyl)-4-amino-2-pyridinecarboxylate herbicide injury on direct seeded and transplanted paddy rice” (priority 2008, dated 2014).
# Columns and labels:
# ORYSA (rice) = experiment: Postemergence herbicidal safening in direct seeded rice, visual injury; conditions: for ‘M202’ ORYSA Visual Injury (%) Obs: Safener Alone, 560 g ai/ha; for ‘M202’ ORYSA Visual Injury (%) Obs / Visual Injury (%) ‘Lemont’ ORYSA Obs: after 3 weeks
# Description: A=observed efficacy of active ingredient A at the same concentration as used in the mixture.
# B=observed efficacy of active ingredient B at the same concentration as used in the mixture.
# ECHCO = experiment: Postemergence herbicidal safening in direct seeded rice, visual injury on weed; format: in vivo; conditions: alone, after 3 weeks
# SEBEX = experiment: as above; format: in vivo; conditions: alone, after 3 weeks
# CYPDI = experiment: as above; format: in vivo; conditions: alone, after 3 weeks
# [1] = alone, 17.5 g ae/ha, after 3 weeks (Table 14)
# [2] = alone, 70 g ae/ha, after 3 weeks (Table 14)
# [3] = alone, 8.75 g ae/ha, after 3 weeks (Table 14)
# [4] = alone, 35 g ae/ha, after 3 weeks (Table 14)
# [5] = No safener, 35 g ai/ha, after 3 weeks (Table 13)
smiles,measurement,setting,value
"Cc1ccc(NC(=O)NC(C)(C)c2ccccc2)cc1 [Daimuron, N-(4-methylphenyl)-N′-(1-methyl-1-phenylethyl)-urea]",‘M202’ ORYSA Visual Injury (%) Obs,ORYSA (rice),3.3%
same,Visual Injury (%) ‘Lemont’ ORYSA Obs,"ORYSA (rice); alone, 35 g ai/ha",0%
same,Visual Injury (%) ‘Lemont’ ORYSA Obs,"ORYSA (rice); alone, 70 g ai/ha",0%
same,Visual Injury (%) ‘Lemont’ ORYSA Obs,"ORYSA (rice); alone, 140 g ai/ha",0%
same,Visual Injury (%) ‘Lemont’ ORYSA Obs,"ORYSA (rice); alone, 280 g ai/ha",0%
same,Visual Injury (%) ECHCO Obs,ECHCO; 35 g ai/ha,5%
same,Visual Injury (%) ECHCO Obs,ECHCO; 70 g ai/ha,0%
same,Visual Injury (%) ECHCO Obs,ECHCO; 140 g ai/ha,0%
same,Visual Injury (%) ECHCO Obs,ECHCO; 280 g ai/ha,10%
same,Visual Injury (%) SEBEX Obs,SEBEX; 35 g ai/ha,0%
same,Visual Injury (%) SEBEX Obs,SEBEX; 70 g ai/ha,0%
same,Visual Injury (%) SEBEX Obs,SEBEX; 140 g ai/ha,0%
same,Visual Injury (%) SEBEX Obs,SEBEX; 280 g ai/ha,0%
same,Visual Injury (%) CYPDI Obs,CYPDI; 35 g ai/ha,0%
same,Visual Injury (%) CYPDI Obs,CYPDI; 70 g ai/ha,0%
same,Visual Injury (%) CYPDI Obs,CYPDI; 140 g ai/ha,0%
same,Visual Injury (%) CYPDI Obs,CYPDI; 280 g ai/ha,0%
CC(C)OC(=O)COc1ccc(Cl)c2cccnc12 [Cloquintocet i-Propyl Ester],Visual Injury (%) ‘Lemont’ ORYSA Obs,"ORYSA (rice); alone, 280 g ae/ha",0%
same,Visual Injury (%) ECHCO Obs,ECHCO; 280 g ae/ha,0%
same,Visual Injury (%) SEBEX Obs,SEBEX; 280 g ae/ha,0%
same,Visual Injury (%) CYPDI Obs,CYPDI; 280 g ae/ha,0%
C=CCOC(=O)c1nc(-c2ccc(Cl)c(OC)c2F)cc(N)c1Cl [Compound 1 Allyl Ester],ORYSA Visual Injury (%) ‘Cheniere’ Obs,ORYSA (rice); [1],55%
same,ORYSA Visual Injury (%) ‘Clearfield’ Obs,ORYSA (rice); [1],50%
same,ORYSA Visual Injury (%) ‘Cocodrie’ Obs,ORYSA (rice); [1],30%
same,ORYSA Visual Injury (%) ‘Lemont’ Obs,ORYSA (rice); [1],25%
same,ORYSA Visual Injury (%) ‘M202’ Obs,ORYSA (rice); [1],55%
same,ORYSA Visual Injury (%) ‘Wells’ Obs,ORYSA (rice); [1],10%
CC(C)(SC(=O)N1CCCCC1)c1ccccc1 [Dimepiperate],ORYSA Visual Injury (%) ‘M202’ Obs,ORYSA (rice); safener 280 g ai/ha alone,10%
CCCOC(=O)c1nc(-c2ccc(Cl)c(OC)c2F)cc(N)c1Cl [Compound 1 n-Propyl Ester],ORYSA Visual Injury (%) ‘Cheniere’ Obs,ORYSA (rice); [2],45%
same,ORYSA Visual Injury (%) ‘Clearfield’ Obs,ORYSA (rice); [2],60%
same,ORYSA Visual Injury (%) ‘Cocodrie’ Obs,ORYSA (rice); [2],45%
same,ORYSA Visual Injury (%) ‘Lemont’ Obs,ORYSA (rice); [2],35%
same,ORYSA Visual Injury (%) ‘M202’ Obs,ORYSA (rice); [2],55%
same,ORYSA Visual Injury (%) ‘Wells’ Obs,ORYSA (rice); [2],15%
C=CCN(CC=C)C(=O)C(Cl)Cl [Dichlormid],ORYSA Visual Injury (%) ‘Cheniere’ Obs,ORYSA (rice); safener 140 g ai/ha alone,0%
same,ORYSA Visual Injury (%) ‘Cocodrie’ Obs,ORYSA (rice); safener 140 g ai/ha alone,0%
same,ORYSA Visual Injury (%) ‘Lemont’ Obs,ORYSA (rice); safener 140 g ai/ha alone,0%
C#CCOC(=O)c1nc(-c2ccc(Cl)c(OC)c2F)cc(N)c1Cl [Compound 1 Propargyl Ester],ORYSA Visual Injury (%) ‘Cheniere’ Obs,ORYSA (rice); [3],55%
same,ORYSA Visual Injury (%) ‘Clearfield’ Obs,ORYSA (rice); [3],50%
same,ORYSA Visual Injury (%) ‘Cocodrie’ Obs,ORYSA (rice); [3],35%
same,ORYSA Visual Injury (%) ‘Lemont’ Obs,ORYSA (rice); [3],30%
same,ORYSA Visual Injury (%) ‘M202’ Obs,ORYSA (rice); [3],55%
same,ORYSA Visual Injury (%) ‘Wells’ Obs,ORYSA (rice); [3],10%
"CC1(C)OC(c2ccco2)CN1C(=O)C(Cl)Cl (centres unmarked) [Furilazole, 3-(dichloroacetyl)-5-(2-furanyl)-2,2-dimethyl-oxazolidine]",‘M202’ ORYSA Visual Injury (%) Obs,ORYSA (rice),3.3%
same,ORYSA Visual Injury (%) ‘Lemont’ Obs,ORYSA (rice); safener 70 g ai/ha alone,0%
O=C(C(Cl)Cl)N1CCOC12CCCCC2 [AD67],ORYSA Visual Injury (%) ‘Lemont’ Obs,ORYSA (rice); safener 140 g ai/ha alone,0%
same,ORYSA Visual Injury (%) ‘M202’ Obs,ORYSA (rice); safener 140 g ai/ha alone,0%
same,ORYSA Visual Injury (%) ‘M202’ Obs,ORYSA (rice); safener 280 g ai/ha alone,15%
CCCCOCCOC(=O)c1nc(-c2ccc(Cl)c(OC)c2F)cc(N)c1Cl [Compound 1 Et butoxy Ester],ORYSA Visual Injury (%) ‘Cheniere’ Obs,ORYSA (rice); [4],50%
same,ORYSA Visual Injury (%) ‘Clearfield’ Obs,ORYSA (rice); [4],40%
same,ORYSA Visual Injury (%) ‘Cocodrie’ Obs,ORYSA (rice); [4],50%
same,ORYSA Visual Injury (%) ‘Lemont’ Obs,ORYSA (rice); [4],50%
same,ORYSA Visual Injury (%) ‘M202’ Obs,ORYSA (rice); [4],30%
same,ORYSA Visual Injury (%) ‘Wells’ Obs,ORYSA (rice); [4],15%
COc1c(Cl)ccc(-c2cc(N)c(Cl)c(C(=O)[O-])n2)c1F.[K+] [Compound 1 K^+ Salt],ORYSA Visual Injury (%) ‘Cheniere’ Obs,ORYSA (rice); [3],50%
same,ORYSA Visual Injury (%) ‘Clearfield’ Obs,ORYSA (rice); [3],45%
same,ORYSA Visual Injury (%) ‘Cocodrie’ Obs,ORYSA (rice); [3],30%
same,ORYSA Visual Injury (%) ‘Lemont’ Obs,ORYSA (rice); [3],40%
same,ORYSA Visual Injury (%) ‘M202’ Obs,ORYSA (rice); [3],50%
same,ORYSA Visual Injury (%) ‘Wells’ Obs,ORYSA (rice); [3],0%
CCCCOC(=O)c1nc(-c2ccc(Cl)c(OC)c2F)cc(N)c1Cl [Compound 1 n-Butyl Ester],ORYSA Visual Injury (%) ‘Cheniere’ Obs,ORYSA (rice); [5],25%
same,ORYSA Visual Injury (%) ‘Cocodrie’ Obs,ORYSA (rice); [5],20%
same,ORYSA Visual Injury (%) ‘M202’ Obs,ORYSA (rice); [5],28%
"FC(F)(F)C(=NOCC1OCCO1)c1ccc(Cl)cc1 [Fluxofenim, 1-(4-chlorophenyl)-2,2,2-trifluoroethanone O-(1,3-dioxolan-2-ylmethyl)oxime]",‘M202’ ORYSA Visual Injury (%) Obs,ORYSA (rice),3.3%
CCOC(=O)c1nc(C(Cl)(Cl)Cl)n(-c2ccc(Cl)cc2Cl)n1 [Fenchlorazole-ethyl],‘M202’ ORYSA Visual Injury (%) Obs,ORYSA (rice),0.0%
